± gives the expanded uncertainty stated by the source.
Assay: cn = amount concentration of the nth substance listed, in mol/dm3
Conditions: 101 kPa, Liquid; for viscosity: Concentric cylinders viscometry, c1 = 0.025; for mass density: Vibrating tube method

Row | Compound | viscosity (293.15 K) [mPa·s] | viscosity (298.15 K) [mPa·s] | viscosity (303.15 K) [mPa·s] | mass density (298.15 K, c1 = 0.2091) [kg/m3] | mass density (298.15 K, c1 = 0.5066) [kg/m3] | mass density (298.15 K, c1 = 1.013) [kg/m3] | mass density (298.15 K, c1 = 1.503) [kg/m3] | mass density (298.15 K, c1 = 1.974) [kg/m3] | mass density (298.15 K, c1 = 2.45) [kg/m3]
1 | NCC(=O)NCC(=O)O [glycylglycine] + O | 1.019 ± 0.0071 | 0.9026 ± 0.0067 | 0.8068 ± 0.0064 |  |  |  |  |  | 
2 | [Cl-].[Na+] [sodium chloride] + O |  |  |  | 1005.46 ± 0.056 | 1015.26 ± 0.065 | 1034.19 ± 0.085 | 1049.73 ± 0.11 | 1074.45 ± 0.15 | 1088.01 ± 0.19
